# Data from patent US6339101B1, “N-linked sulfonamides of N-heterocyclic carboxylic acids or isosteres for vision and memory disorders” (GPI NIL Holdings, Inc., priority 1998, dated 2002).
# Columns and labels:
# [1] = tested on: retinal ganglion cell axons; assay: Protection of retinal ganglion cell axons from degeneration following optic nerve transection (Table V); assay type: in vivo; details: ± SEM
# Excerpt: Efficacy of representative compounds from different immunophilin ligand series in protecting retinal ganglion cell axons from degeneration following optic nerve transection is set forth in Table V.
# FKBP12 = FKBP12 (Homo sapiens, UniProt P62942); assay: Ki test: inhibition of peptidyl-prolyl isomerase (rotamase) activity of FKBP; assay type: biochemical; details: apparent Ki; read-out: Ki rotomase
# Excerpt: The inhibition of the prolyl peptidyl cis-trans isomerase activity of FKBP may be measured as an indicator of this affinity.
# These values are obtained as apparent Ki's.
# The cis-trans isomerization of an alanine-proline bond in a model substrate, N-succinyl-Ala-Ala-Pro-Phe-p-nitroanilide, is monitored spectrophotometrically in a chymotrypsin-coupled assay, which releases para-nitroanilide from the trans form of the substrate. The inhibition of this reaction caused by the addition of different concentrations of inhibitor is determined, and the data is analyzed as a change in first-order rate constant as a function of inhibitor concentration to yield the apparent Ki values.
# In a plastic cuvette are added 950 ml of ice cold assay buffer (25 mM HEPES, pH 7.8, 100 nM NaCl), 10 ml of FKBP (2.5 mM in 10 mM Tris-Cl pH 7.5, 100 mM NaCl, 1 mM dithiothreitol), 25 ml of chymotrypsin (50 mg/ml in 1 mM HCl) and 10 ml of test compound at various concentrations in dimethyl sulfoxide. The reaction is initiated by the addition of 5 ml of substrate (succinyl-Ala-Phe-Pro-Phe-para-nitroanilide, 5 mg/ml in 2.35 mM LiCl in trifluoroethanol).
# The absorbance at 390 nm versus time is monitored for 90 seconds using a spectrophotometer and the rate constants are determined from the absorbance versus time data files.
# [2] = tested on: retinal ganglion cells, optic nerve axons and myelin; assay: Retinal ischemia by raised intraocular pressure; assay type: in vivo, rats; details: 28 days after 1 hour retinal ischemia
# Excerpt: Retinal ganglion cells were retrogradely labeled in adult rats by bilateral injection of fluorogold in their lateral geniculate nuclei. Labeled ganglion cells in the normal rat retina appear as white profiles against the dark background (FIG. 1A). Complete retinal ischemia was produced by infusing normal saline solution into the retinal vitreous cavity of each eye until the intraocular pressure exceeded arterial blood pressure. 28 days after the ischemic episode extensive degeneration of retinal ganglion cell was evidenced by massive reduction in the density of fluorogold labeled cells (FIG. 1B).
# Optic nerves from vehicle treated cases examined 28 days after a 1 hour retinal ischemia episode are characterized by a decreased density of optic nerve axons and the appearance of numerous degenerating myelin figures (bright white filled circles).
# retinal ganglion cells = assay: Example 18: optic nerve transection, ganglion cell survival and axonal dying back; assay type: in vivo, Sprague Dawley rats; details: 10 mg/kg/day s.c. for 28 days; 90 days after transection
# Excerpt: Transection of the mammalian optic nerve results in a brief period of abortive regeneration, but the majority of axotomized neurons die and the axons from many persisting ganglion cells die back beyond the optic nerve head.
# retina = assay: Streptozotocin induced diabetes, retinal neovascularization and neuron loss; assay type: in vivo; details: 28 day treatment beginning 8 weeks after onset of streptozotocin diabetes
# [3] = Morris watermaze spatial learning and memory in aged rodents; assay type: in vivo, C57BL/6N-Nia mice; details: aged impaired mice, 10 mg/kg daily, after 3 weeks of dosing; vs young mice
# Excerpt: The Morris watermaze is widely used for assessing spatial memory formation and retention in experimental animals. The test depends on the animal's ability to utilize spatial visual information in order to locate a submerged escape platform in a water tank. It is important that the tank itself be as devoid of specific visual features as possible—thus, it is always circular in shape, the sides are kept smooth and in uniform dull colors, and the water is rendered opaque with nontoxic watercolor pigment or powdered milk. This is to ensure that the animal navigates only by the use of more distant visual cues, or by the use of intra-maze cues specifically provided by the experimenter.
# The animals' path, speed, and swim time are tracked with a ceiling camera for later computerized analysis. Over the course of several successive trials, spatial learning can therefore be defined as a drop of distance swum, or time elapsed, from placement in the tank until escape onto the invisible platform. […]
# Retention testing began after 3 weeks of dosing using the same methods as the acquisition phase. Swim Distances (cm) were analyzed in a 7×5 ANOVA including Groups and Blocks (1-5) as factors in the analysis, treating Blocks as a repeated measure.
# [4] = tested on: retinal ganglion cells and optic nerve axons; assay: In vivo retinal ganglion cell and optic nerve axon tests after optic nerve transection (Table 1); parameters: species or system Sprague Dawley rats; details: 90 days after optic nerve transection
# Excerpt: All eyes and optic nerve stumps were removed.
# [5] = Clearance (Table V comments); assay type: in vitro ADME
# Chain of FKBP12 (P62942 whole entry, species assumed): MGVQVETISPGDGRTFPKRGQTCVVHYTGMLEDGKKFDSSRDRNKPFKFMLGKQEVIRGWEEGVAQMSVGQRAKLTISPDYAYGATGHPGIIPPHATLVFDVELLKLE
smiles,measurement,setting,value
CCC(C)(C)C(=O)C(=O)N1CCC[C@H]1C(=O)CCCCc1cccnc1 [J],RT-RGC azon density 11 days after ON Transection ( axon rescued),[1],15.8% ±4.8% SEM
O=C(OCCCCc1ccccc1)[C@@H]1CCCCN1S(=O)(=O)Cc1ccccc1 [D],RT-RGC azon density 11 days after ON Transection ( axon rescued),[1],58.4% ±6.4% SEM
CCC(C)(C)C(=O)C(=O)N1CCCC[C@H]1C(=O)O [G],RT-RGC azon density 11 days after ON Transection ( axon rescued),[1],34.0% ±4.8% SEM
CCC(C)(C)C(=O)C(=O)N1CCC[C@H]1C(=O)OCCCc1cccnc1 [GPI 1046],Ki,FKBP12,7.5 nM
same,protection of optic nerve axons from degeneration,[2],protected the majority of optic nerve axons from degeneration
same,RT-RGC azon density 11 days after ON Transection ( axon rescued),[1],60.5% ±3.9 SEM
same,ganglion cell population spared,retinal ganglion cells,25%
same,preservation of axons of protected neurons in proximal stump,retinal ganglion cells,preserved the axons of virtually all protected neurons
same,loss of neurons in INL and GCL,retina,appeared to decrease the loss of neurons
same,"neovascularization in PR, ONL, OPL and INL of retina",retina,reduced neovascularization
same,neuronal loss in the ONL,retina,did not appear to protect
same,"difference between young and aged impaired GPI-1046 treated groups, retention phase",[3],no longer any statistically significant difference
same,RGC Counts (mean density + SEM of Fluoro-gold labeled retinal ganglion cells in 400 μm × 400 μm gridfields),[4]; 10 mg/kg/day sc for 28 days,67.9 ± 5.8
same,increased ON axon density (adjusted for optic nerve diameter),[4]; 14 days treatment,1.5X
same,increased ON axon density (adjusted for optic nerve diameter),[4]; 28 days treatment,5.0X
O=C(SCCCc1ccccc1)[C@@H]1CCCN1S(=O)(=O)Cc1ccccc1 [C],RT-RGC azon density 11 days after ON Transection ( axon rescued),[1],60.4% ±3.1% SEM
CCC(C)(C)C(=O)C(=O)N1CCCC[C@H]1C(=O)SCCC(c1ccccc1)c1ccccc1 [K],RT-RGC azon density 11 days after ON Transection ( axon rescued),[1],13.0% ±4.2% SEM
O=C(SCCCc1ccccc1)C1CCCN1C(=O)NC12CC3CC(CC(C3)C1)C2 (stereo not shown) [B],RT-RGC azon density 11 days after ON Transection ( axon rescued),[1],100.0% ±5.2% SEM
CCC(C)(C)C(=O)C(=O)N1CCS[C@H]1C(=O)OCCCc1cccnc1 [F],RT-RGC azon density 11 days after ON Transection ( axon rescued),[1],55.1% ±5.9% SEM
CCC(C)(C)C(=O)C(=O)N1CCCC[C@H]1C(N)=O [H],RT-RGC azon density 11 days after ON Transection ( axon rescued),[1],30.3% ±8.0% SEM
CCC(C)(C)C(=O)C(=O)N1CCC[C@H]1C(=O)SCCC(c1ccccc1)c1ccccc1 [M],RT-RGC azon density 11 days after ON Transection ( axon rescued),[1],−6.3% +3.9% SEM
CCC(C)(C)C(=O)C(=O)N1CCCC[C@H]1C(=O)SC(CCc1ccccc1)CCc1ccccc1 [E],Clearance,[5],41.8 µL/min
same,Ki,FKBP12,20 nM
same,RT-RGC azon density 11 days after ON Transection ( axon rescued),[1],56.6% ±9.4% SEM
CCC(C)(C)C(=O)C(=O)N1CCC[C@H]1C(=O)O [L],RT-RGC azon density 11 days after ON Transection ( axon rescued),[1],7.8% ±3.0% SEM
